Data on eleven compounds can be found in US11767341B2, “Lincosamide antibiotics and uses thereof” (President and Fellows of Harvard College, priority 2017, dated 2023).

Converted amounts (≈) assume the structure as drawn. Read-outs that look alike come from different tables or passages of the source. Some results are limits rather than exact numbers.

Common to all, as to assay: MIC determination
What all share (assay type): cell-based

One assay has as its system S. aureus ATCC 29213. As to conditions: Staphylococcus aureus.
The next assay has as its system S. aureus BAA 977 iErmA. As to conditions: Staphylococcus aureus, BAA977.
For assay [1], the system named is S. aureus MP-549 msr(a) USA 300. As to conditions: Staphylococcus aureus, USA300, S. aureus MP-549 msr(a) USA 300.
Assay [2] deals with S. aureus MP-513 clinical cErm. As to conditions: Staphylococcus aureus.
For another assay, the system named is K. pneumoniae ATCC 10031. Particulars: Klebsiella pneumoniae, ATCC10031.
For the next assay, the system named is E. coli ATCC 25922. As to conditions: Escherichia coli.
Another assay deals with E. coli MP-9 ΔTolC. Particulars: Escherichia coli.
The test system of the next assay is P. aeruginosa ATCC 27853. Particulars: Pseudomonas aeruginosa, ATCC27853.
The test system of assay [3] is S. aureus Micromyx USA 300. As to conditions: Staphylococcus aureus, USA300; S. aureus Micromyx USA 300; read-out: MIC.
A further assay has as its system S. aureus MMX 3035 cErmA. As to conditions: Staphylococcus aureus, MMX3035CERMA.
A further assay has as its system S. pneumoniae ATCC 49619. Particulars: Streptococcus pneumoniae, ATCC49619; S. pneumoniae ATCC 49619; read-out: MIC.
For assay [4], the system named is S. pneumoniae MMX 3028 cErmB. Particulars: Streptococcus pneumoniae, MMX3028CERMB.
The subject of assay [5] is S. pneumoniae MMX 3031 cMefA. Particulars: Streptococcus pneumoniae, MMX3031CMEFA.
A further assay concerns S. pyogenes ATCC 19615. Particulars: Streptococcus pyogenes, ATCC19615; S. pyogenes ATCC 19615; read-out: MIC.
In assay [6] the test system is S. pyogenes MMX 946 Macrolide-Resistant. Particulars: Streptococcus pyogenes, read-out: MIC.
The next assay has as its system E. faecalis ATCC 29212. As to conditions: Enterococcus faecalis.
Assay [7] has as its system E. faecalis MMX 847 Macrolide-Resistant. Particulars: Enterococcus faecalis.
The subject of the next assay is C. difficile BAA 1805. As to conditions: Clostridioides difficile, BAA1805; C. difficile BAA 1805; read-out: MIC.
A further assay relates to B. fragilis ATCC 25285. Particulars: Bacteroides fragilis, ATCC25285.
Assay [8] has as its system E. coli MMX TolC parent strain. As to conditions: Escherichia coli.
The subject of a further assay is E. coli MMX 0121 ΔTolC. As to conditions: Escherichia coli.
The test system of assay [9] is E. coli MP-74 LptD mutant. Particulars: Escherichia coli.
The test system of assay [10] is P. aeruginosa MMX Mex parent strain. Particulars: Pseudomonas aeruginosa.
Assay [11] has as its system P. aeruginosa MMX 3476 Δmex. As to conditions: Pseudomonas aeruginosa.
In the next assay the test system is H. influenzae ATCC 49247. Particulars: Haemophilus influenzae, ATCC49247.
Assay [12] has as its system S. pneumoniae UNT-039, MP-627, TP1517 (mefA). Particulars: Streptococcus pneumoniae.
Setting [13] is: ATCC29213, S. aureus ATCC 29213, read-out: MIC.

Regarding `CCCN1CCO[C@@H]2[C@H](CN[C@@H]2C(=O)N[C@H]([C@H](C)Cl)[C@H]2OC(SC)[C@H](O)C(O)C2O)C1` (some centres unmarked) [FSA-503003], the MIC with S. aureus ATCC 29213 (setting [13]) is 4 µg/mL (≈ 8.3 µM); with S. aureus BAA 977 iErmA it was 4 µg/mL (≈ 8.3 µM); in assay [1], 2 µg/mL (≈ 4.15 µM); in assay [2] it was more than 64 µg/mL; against K. pneumoniae ATCC 10031 it was more than 64 µg/mL; in the assay on E. coli ATCC 25922 (ATCC25922), more than 64 µg/mL. In addition, the MIC with E. coli MP-9 ΔTolC and in the assay on P. aeruginosa ATCC 27853 was more than 64 µg/mL in each case.

Regarding `CSC1O[C@H]([C@H](NC(=O)[C@H]2NC[C@@H]3CN(C(=N)N)CCO[C@H]32)[C@H](C)Cl)C(O)C(O)[C@H]1O` (some centres unmarked) [FSA-504057], the MIC (in the assay on S. aureus ATCC 29213 (ATCC29213); in assay [2]; in the assay with K. pneumoniae ATCC 10031; against E. coli ATCC 25922 (ATCC25922); in the assay with E. coli MP-9 ΔTolC; against P. aeruginosa ATCC 27853) was more than 64 µg/mL each time.

With `CCNC(=O)N1CCO[C@@H]2[C@H](CN[C@@H]2C(=O)N[C@H]([C@H](C)Cl)[C@H]2OC(SC)[C@H](O)C(O)C2O)C1` (some centres unmarked) [FSA-503004], the MIC (in the assay on S. aureus ATCC 29213 (ATCC29213); against S. aureus BAA 977 iErmA; in assay [1]; in assay [2]; with K. pneumoniae ATCC 10031; against E. coli ATCC 25922 (ATCC25922)) was more than 64 µg/mL throughout. Besides, the MIC with E. coli MP-9 ΔTolC and in the assay with P. aeruginosa ATCC 27853 was more than 64 µg/mL in each case.

Regarding `CSC1O[C@H]([C@H](NC(=O)[C@H]2NC[C@@H]3CN(CC(=O)O)CCO[C@H]32)[C@H](C)Cl)C(O)C(O)[C@H]1O` (some centres unmarked) [FSA-504063], the MIC (in the assay on S. aureus ATCC 29213 (ATCC29213); in assay [2]; against K. pneumoniae ATCC 10031; against E. coli ATCC 25922 (ATCC25922); with E. coli MP-9 ΔTolC; in the assay with P. aeruginosa ATCC 27853) was more than 64 µg/mL in each case.

Consider `CSC1O[C@H]([C@H](NC(=O)[C@H]2NC[C@@H]3CNCCO[C@H]32)[C@H](C)Cl)C(O)C(O)[C@H]1O` (some centres unmarked) [FSA-503001], for which the MIC in the assay with S. aureus ATCC 29213 (setting [13]) was 64 µg/mL (≈ 145 µM); in the assay with S. aureus BAA 977 iErmA, more than 64 µg/mL; in assay [1], more than 64 µg/mL; in [2], more than 64 µg/mL; against K. pneumoniae ATCC 10031 it was more than 64 µg/mL; with E. coli ATCC 25922 (ATCC25922) it was more than 64 µg/mL. For the same compound, the MIC against E. coli MP-9 ΔTolC and in the assay with P. aeruginosa ATCC 27853 was more than 64 µg/mL in each case.

For the compound `CSC1O[C@H]([C@H](NC(=O)[C@H]2NC[C@@H]3CN(Cc4ccc(N)nc4)CCO[C@H]32)[C@H](C)Cl)C(O)[C@@H](O)[C@H]1O` (some centres unmarked) [FSA-504050], the MIC is 32 µg/mL (≈ 58.6 µM) with S. aureus ATCC 29213 (setting [13]); 64 µg/mL (≈ 117 µM) in the assay with S. aureus BAA 977 iErmA; 32 µg/mL (≈ 58.6 µM) in [1]; more than 64 µg/mL in assay [2]; more than 64 µg/mL in the assay with K. pneumoniae ATCC 10031; more than 64 µg/mL with E. coli ATCC 25922 (ATCC25922). The MIC in the assay with E. coli MP-9 ΔTolC and in the assay on P. aeruginosa ATCC 27853 was more than 64 µg/mL each time.

Take `CSC1O[C@H]([C@H](NC(=O)[C@H]2NC[C@@H]3CC=CCO[C@H]32)[C@H](C)Sc2ccc(-c3cncnc3)cc2)C(O)[C@@H](O)[C@H]1O` (some centres unmarked) [FSA-27049]: the MIC with S. aureus ATCC 29213 (setting [13]) is 1 µg/mL (≈ 1.7 µM); against S. aureus BAA 977 iErmA, 2 µg/mL (≈ 3.4 µM); in [1] it was 0.25 µg/mL (≈ 0.425 µM); in assay [3], 1 µg/mL (≈ 1.7 µM); in assay [2], more than 64 µg/mL; in the assay with S. aureus MMX 3035 cErmA it was more than 64 µg/mL. In addition, the MIC was not above 0.06 µg/mL with S. pneumoniae ATCC 49619; 32 µg/mL (≈ 54.4 µM) in [4]; not above 0.06 µg/mL in assay [5]; not above 0.06 µg/mL in the assay on S. pyogenes ATCC 19615; 2 µg/mL (≈ 3.4 µM) in [6] (S. pyogenes MMX 946 Macrolide-Resistant (MacRes)); 64 µg/mL (≈ 109 µM) in the assay with E. faecalis ATCC 29212 (ATCC29212). The MIC was more than 64 µg/mL in [7]; 1 µg/mL (≈ 1.7 µM) in the assay on C. difficile BAA 1805; more than 64 µg/mL in the assay on B. fragilis ATCC 25285; more than 64 µg/mL in the assay with E. coli ATCC 25922 (ATCC25922); more than 64 µg/mL in [8]; 8 µg/mL (≈ 13.6 µM) with E. coli MMX 0121 ΔTolC. The MIC in the assay with E. coli MP-9 ΔTolC is 64 µg/mL (≈ 109 µM); in [9] it was 32 µg/mL (≈ 54.4 µM); with P. aeruginosa ATCC 27853 it was more than 64 µg/mL; in assay [10], more than 64 µg/mL; in [11], more than 64 µg/mL; against H. influenzae ATCC 49247, 32 µg/mL (≈ 54.4 µM).

Take `CSC1O[C@H]([C@H](NC(=O)[C@H]2NC[C@@H]3C[C@@H](c4ccccc4F)CCO[C@H]32)[C@H](C)Cl)C(O)[C@@H](O)[C@H]1O` (some centres unmarked) [FSA-511100]: the MIC in the assay with S. aureus ATCC 29213 (setting [13]) was 0.25 µg/mL (≈ 0.469 µM); against S. aureus BAA 977 iErmA, 4 µg/mL (≈ 7.5 µM); in [1], 0.25 µg/mL (≈ 0.469 µM); in [2] (S. aureus MP-513 clinical cErm, read-out: MIC), more than 256 µg/mL; with S. pneumoniae ATCC 49619, 0.125 µg/mL (≈ 0.234 µM); in assay [4] (S. pneumoniae MMX 3028 cErmB, read-out: MIC), more than 256 µg/mL. Besides, the MIC is 1 µg/mL (≈ 1.88 µM) in assay [12]; 0.25 µg/mL (≈ 0.469 µM) with S. pyogenes ATCC 19615; more than 256 µg/mL in assay [6] (S. pyogenes MMX 946 MacRes); more than 256 µg/mL in the assay with E. faecalis ATCC 29212 (ATCC29212, read-out: MIC); more than 64 µg/mL in the assay with K. pneumoniae ATCC 10031 (K. pneumoniae ATCC 10031, read-out: MIC); more than 64 µg/mL in the assay with E. coli ATCC 25922 (ATCC25922, E. coli ATCC 25922, read-out: MIC). Also, the MIC worked out at 32 µg/mL (≈ 60 µM) with E. coli MP-9 ΔTolC; 16 µg/mL (≈ 30 µM) in assay [9]; 64 µg/mL (≈ 120 µM) in the assay on H. influenzae ATCC 49247 (H. influenzae ATCC 49247, read-out: MIC).

As to `CSC1O[C@H]([C@H](NC(=O)[C@H]2NC[C@@H]3CN(Cc4ccnc(N)c4)CCO[C@H]32)[C@H](C)Cl)C(O)C(O)[C@H]1O` (some centres unmarked) [FSA-504849], the MIC with S. aureus ATCC 29213 (setting [13]) was 16 µg/mL (≈ 29.3 µM); in the assay on S. aureus BAA 977 iErmA, 32 µg/mL (≈ 58.6 µM); in assay [1], 8 µg/mL (≈ 14.6 µM); in [2] it was more than 64 µg/mL; against K. pneumoniae ATCC 10031, more than 64 µg/mL; in the assay on E. coli ATCC 25922 (ATCC25922), more than 64 µg/mL. Also, the MIC with E. coli MP-9 ΔTolC and against P. aeruginosa ATCC 27853 was more than 64 µg/mL throughout.

Consider `CSC1O[C@H]([C@H](NC(=O)[C@H]2NC[C@@H]3CN(C)CCO[C@H]32)[C@H](C)Cl)C(O)C(O)[C@H]1O` (some centres unmarked) [FSA-503002], for which the MIC with S. aureus ATCC 29213 (setting [13]) was 64 µg/mL (≈ 141 µM); in the assay on S. aureus BAA 977 iErmA, more than 64 µg/mL; in assay [1], more than 64 µg/mL; in assay [2], more than 64 µg/mL; in the assay with K. pneumoniae ATCC 10031 it was more than 64 µg/mL; against E. coli ATCC 25922 (ATCC25922), more than 64 µg/mL. The MIC in the assay on E. coli MP-9 ΔTolC and with P. aeruginosa ATCC 27853 was more than 64 µg/mL throughout.

On to `C=CCOC(=O)N1CCO[C@@H]2[C@H](CN[C@@H]2C(=O)N[C@H]([C@H](C)Cl)[C@H]2OC(SC)[C@H](O)[C@H](O)C2O)C1` (some centres unmarked) [FSA-503073], for which the MIC in the assay with S. aureus ATCC 29213 (setting [13]) was 64 µg/mL (≈ 122 µM); in the assay with S. aureus BAA 977 iErmA it was 64 µg/mL (≈ 122 µM); in [1], 32 µg/mL (≈ 61.1 µM); in assay [2], more than 64 µg/mL; against K. pneumoniae ATCC 10031 it was more than 64 µg/mL; against E. coli ATCC 25922 (ATCC25922), more than 64 µg/mL. The MIC in the assay on E. coli MP-9 ΔTolC and with P. aeruginosa ATCC 27853 was more than 64 µg/mL in each case.
